Experimental data from ChEMBL document CHEMBL2163248, “Classification of inhibitors of hepatic organic anion transporting polypeptides (OATPs): influence of protein expression on drug-drug interactions” (J Med Chem, 2012).

Key:
[1] = molecular target: T1, Solute carrier organic anion transporter family member 1B1 (Homo sapiens, UniProt Q9Y6L6); assay: Inhibition of human liver OATP1B1 expressed in HEK293 Flp-In cells assessed as reduction in E17-betaG uptake at 20 uM by scintillation counting; conditions: hek293, 20 µM
T1 sequence (Q9Y6L6 whole entry): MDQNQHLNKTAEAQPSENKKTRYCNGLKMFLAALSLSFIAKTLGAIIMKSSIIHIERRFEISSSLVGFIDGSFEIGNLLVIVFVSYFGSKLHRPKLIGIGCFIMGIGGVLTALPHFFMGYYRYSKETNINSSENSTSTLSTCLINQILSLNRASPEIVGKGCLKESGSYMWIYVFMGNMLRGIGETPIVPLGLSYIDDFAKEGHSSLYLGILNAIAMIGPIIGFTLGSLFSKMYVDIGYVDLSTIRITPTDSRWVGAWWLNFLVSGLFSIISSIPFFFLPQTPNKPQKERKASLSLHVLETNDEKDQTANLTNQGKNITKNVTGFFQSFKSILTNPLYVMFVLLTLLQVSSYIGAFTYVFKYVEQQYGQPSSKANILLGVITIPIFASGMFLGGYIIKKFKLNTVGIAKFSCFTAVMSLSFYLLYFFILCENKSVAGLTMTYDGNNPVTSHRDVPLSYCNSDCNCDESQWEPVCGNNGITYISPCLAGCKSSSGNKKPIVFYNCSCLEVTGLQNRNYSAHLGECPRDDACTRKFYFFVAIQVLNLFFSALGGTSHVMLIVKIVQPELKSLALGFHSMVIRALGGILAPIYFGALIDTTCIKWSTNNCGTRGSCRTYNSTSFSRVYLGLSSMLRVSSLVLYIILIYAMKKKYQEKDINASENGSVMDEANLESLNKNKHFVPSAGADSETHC

[2] = molecular target: T2, Solute carrier organic anion transporter family member 2B1 (Homo sapiens, UniProt O94956); assay: Inhibition of human liver OATP2B1 expressed in HEK293 Flp-In cells assessed as reduction in [3H]E3S uptake at 20 uM incubated for 5 mins by scintillation counting; conditions: hek293, 5 min
T2 sequence (O94956 whole entry): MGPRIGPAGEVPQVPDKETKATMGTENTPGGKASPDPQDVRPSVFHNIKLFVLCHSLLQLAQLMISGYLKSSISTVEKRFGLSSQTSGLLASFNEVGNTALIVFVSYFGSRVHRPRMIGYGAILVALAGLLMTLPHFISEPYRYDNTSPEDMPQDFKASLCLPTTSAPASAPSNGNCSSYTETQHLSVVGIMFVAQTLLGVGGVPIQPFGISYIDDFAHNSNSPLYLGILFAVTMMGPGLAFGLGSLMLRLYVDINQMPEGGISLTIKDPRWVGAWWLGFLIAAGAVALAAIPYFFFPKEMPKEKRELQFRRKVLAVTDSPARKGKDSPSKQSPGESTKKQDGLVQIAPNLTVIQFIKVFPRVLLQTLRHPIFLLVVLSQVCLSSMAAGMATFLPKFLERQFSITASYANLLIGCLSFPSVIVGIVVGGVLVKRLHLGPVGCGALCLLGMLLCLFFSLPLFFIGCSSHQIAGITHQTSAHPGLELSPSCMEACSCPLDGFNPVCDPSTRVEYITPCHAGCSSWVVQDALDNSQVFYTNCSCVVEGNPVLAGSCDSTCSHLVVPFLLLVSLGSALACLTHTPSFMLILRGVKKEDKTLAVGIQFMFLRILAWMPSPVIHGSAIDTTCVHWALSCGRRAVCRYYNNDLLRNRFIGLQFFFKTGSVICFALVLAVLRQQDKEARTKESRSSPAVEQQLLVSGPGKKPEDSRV

[3] = molecular target: T3, Solute carrier organic anion transporter family member 1B3 (Homo sapiens, UniProt Q9NPD5); assay: Inhibition of human liver OATP1B3 expressed in HEK293 Flp-In cells assessed as reduction in [3H]E17-betaG uptake at 20 uM incubated for 5 mins by scintillation counting; conditions: hek293, 5 min
T3 sequence (Q9NPD5 whole entry): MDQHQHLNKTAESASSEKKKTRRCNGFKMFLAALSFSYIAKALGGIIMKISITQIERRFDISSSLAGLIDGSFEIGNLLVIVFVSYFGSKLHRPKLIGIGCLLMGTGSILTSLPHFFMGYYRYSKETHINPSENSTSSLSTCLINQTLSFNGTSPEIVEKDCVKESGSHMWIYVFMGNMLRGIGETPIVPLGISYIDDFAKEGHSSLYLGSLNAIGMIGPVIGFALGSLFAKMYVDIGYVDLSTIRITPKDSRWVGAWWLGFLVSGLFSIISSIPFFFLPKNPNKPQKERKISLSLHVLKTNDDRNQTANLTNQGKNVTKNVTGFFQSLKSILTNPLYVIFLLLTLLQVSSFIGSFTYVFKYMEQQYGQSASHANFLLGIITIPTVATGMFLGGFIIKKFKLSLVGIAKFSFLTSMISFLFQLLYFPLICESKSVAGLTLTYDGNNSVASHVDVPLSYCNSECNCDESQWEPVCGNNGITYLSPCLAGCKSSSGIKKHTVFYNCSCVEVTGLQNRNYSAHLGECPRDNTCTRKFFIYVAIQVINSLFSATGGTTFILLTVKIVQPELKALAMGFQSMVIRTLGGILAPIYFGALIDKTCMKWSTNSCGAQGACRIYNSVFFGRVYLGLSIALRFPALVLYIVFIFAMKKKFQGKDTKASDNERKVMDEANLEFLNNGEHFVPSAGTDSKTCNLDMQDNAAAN

Row | Compound | INH [1] | INH [2] | INH [3]
1 | CCC1(c2ccccc2)C(=O)NC(=O)NC1=O [PHENOBARBITAL] | -3.9% | 11% | 7.3%
2 | CN(CCOc1ccc(CC2SC(=O)NC2=O)cc1)c1ccccn1 (configuration not stated) [ROSIGLITAZONE] | 79.1% | 10% | -32.1%
3 | CNCC[C@@H](Oc1ccccc1C)c1ccccc1 [ATOMOXETINE] | -7.5% | 16.3% | 31.6%
4 | NCCCC[C@H](N[C@@H](CCc1ccccc1)C(=O)O)C(=O)N1CCC[C@H]1C(=O)O [LISINOPRIL ANHYDROUS] | 4.6% | 19.2% | 9%
5 | COc1cc(Cc2cnc(N)nc2N)cc(OC)c1OC [TRIMETHOPRIM] | 24.7% | 35.1% | 18.8%
6 | CCOC(=O)C1=C(C)NC(C)=C(C(=O)OC)C1c1cccc(Cl)c1Cl (configuration not stated) [FELODIPINE] | 36.6% | 21.4% | 18.4%
7 | Cn1nnnc1SCC1=C(C(=O)O)N2C(=O)[C@@H](NC(=O)[C@H](O)c3ccccc3)[C@H]2SC1 [CEFAMANDOLE] | 30.2% | 2.7% | 16.5%
8 | COc1ccc(CCN2CCC(Nc3nc4ccccc4n3Cc3ccc(F)cc3)CC2)cc1 [ASTEMIZOLE] | 22.3% | 58.9% | 24.4%
9 | CC(C)(C)NC(=O)[C@@H]1CN(Cc2cccnc2)CCN1C[C@@H](O)C[C@@H](Cc1ccccc1)C(=O)N[C@H]1c2ccccc2C[C@H]1O.O | 71.9% | 17.8% | 18.1%
10 | O=C(O)C[C@H](O)C[C@H](O)/C=C/c1c(C2CC2)nc2ccccc2c1-c1ccc(F)cc1 [PITAVASTATIN] | 97.4% | 63.7% | 94.3%
11 | CC(C)N(CCC(C(N)=O)(c1ccccc1)c1ccccn1)C(C)C (configuration not stated) [DISOPYRAMIDE] | 47.5% | 18.5% | 8.6%
12 | CO[C@H]1/C=C/O[C@@]2(C)Oc3c(C)c(O)c4c(O)c(cc(O)c4c3C2=O)NC(=O)/C(C)=C\C=C\[C@H](C)[C@H](O)[C@@H](C)[C@@H](O)[C@@H](C)[C@H](OC(C)=O)[C@@H]1C [RIFAMYCIN] | 95.4% | 74.8% | 101.4%
13 | O=C1Nc2ccc(Cl)cc2[C@@](C#CC2CC2)(C(F)(F)F)O1 [EFAVIRENZ] | 40.9% | 43.2% | 18.2%
14 | FLUPENTIXOL | 30.2% | 9.5% | 13.5%
15 | C[C@H](CS)C(=O)N1CCC[C@H]1C(=O)O [CAPTOPRIL] | 18.6% | 39.1% | 4%
16 | C[C@H](CCC(=O)NCC(=O)O)[C@H]1CC[C@H]2[C@@H]3[C@H](O)C[C@@H]4C[C@H](O)CC[C@]4(C)[C@H]3CC[C@]12C [GLYCOCHENODEOXYCHOLATE] | 80.2% | 65.3% | 72%
17 | C[C@H](CCC(=O)NCCS(=O)(=O)O)[C@H]1CC[C@H]2[C@@H]3CC[C@@H]4C[C@H](O)CC[C@]4(C)[C@H]3CC[C@]12C [TAUROLITHOCHOLIC ACID] | 97.8% | 94.6% | 89.8%

Row | Compound | INH [1] | INH [2] | INH [3]
18 | CCN(CC)CCNC(=O)c1ccc(N)cc1 [PROCAINAMIDE] | 21.6% | 17.8% | 3.4%
19 | O=c1oc2cc(O)ccc2c2oc3cc(O)ccc3c12 [COUMESTROL] | 73.2% | -41.5% | -21.1%
20 | CN[C@@H]1C[C@H](N)[C@@H](O)[C@H](O[C@H]2O[C@H](CO)[C@H](O)[C@@H]3O[C@@]4(O[C@@H]23)O[C@H]([C@H](N)CO)[C@H](O)[C@H](O)[C@H]4O)[C@H]1O [HYGROMYCIN] | 32.8% | 31.5% | -4.2%
21 | CC1(C)[C@@H](O[C@H]2O[C@H](C(=O)O)[C@@H](O)[C@H](O)[C@H]2O[C@@H]2O[C@H](C(=O)O)[C@@H](O)[C@H](O)[C@H]2O)CC[C@]2(C)[C@H]3C(=O)C=C4[C@@H]5C[C@@](C)(C(=O)O)CC[C@]5(C)CC[C@@]4(C)[C@]3(C)CC[C@@H]12 [GLYCYRRHIZIN] | 65.8% | 28.7% | 90.9%
22 | Clc1ccccc1CN1CCc2sccc2C1 [TICLOPIDINE] | 19.4% | 23% | 0.2%
23 | CC1=C(C(=O)O)N2C(=O)[C@@H](NC(=O)[C@H](N)c3ccc(O)cc3)[C@H]2SC1 [CEFADROXIL] | 9.4% | 3.5% | 21%
24 | CN(C)CC/C=C1/c2ccccc2Sc2ccc(Cl)cc21 [CHLORPROTHIXENE] | 24% | 26.6% | -6.9%
25 | COc1ccc2cc3[n+](cc2c1OC)CCc1cc2c(cc1-3)OCO2 [BERBERINE] | 32% | 18.5% | 19.4%
26 | COCCCC/C(=N\OCCN)c1ccc(C(F)(F)F)cc1 [FLUVOXAMINE] | 43.8% | 39% | 29.2%
27 | CCc1c2c(nc3ccc(OC(=O)N4CCC(N5CCCCC5)CC4)cc13)-c1cc3c(c(=O)n1C2)COC(=O)[C@]3(O)CC [IRINOTECAN] | 40.5% | 16.3% | 26.9%
28 | CC(C)CN(C[C@@H](O)[C@H](Cc1ccccc1)NC(=O)O[C@H]1CCOC1)S(=O)(=O)c1ccc(N)cc1 | 79.3% | -3.4% | 16.3%
29 | CC(C)OC(=O)C(C)(C)Oc1ccc(C(=O)c2ccc(Cl)cc2)cc1 [FENOFIBRATE] | 5.4% | 34.2% | -10.8%
30 | Nc1ccc(C(=O)NCC(=O)O)cc1 [AMINOHIPPURIC ACID] | 30.1% | 27.4% | 23.7%
31 | Cc1ccc(C)c(OCCCC(C)(C)C(=O)O)c1 [GEMFIBROZIL] | 59.3% | 15.1% | 14.4%
32 | CN(C)CCC=C1c2ccccc2CCc2ccccc21 [AMITRIPTYLINE] | 10.5% | -8.9% | 22%
33 | CC(C)Cc1ccc(C(C)C(=O)O)cc1 (configuration not stated) [IBUPROFEN] | 47.3% | 13.5% | -6.6%
34 | O=C1OC(c2ccc(O)c(S(=O)(=O)[O-])c2)(c2ccc(O)c(S(=O)(=O)[O-])c2)c2c(Br)c(Br)c(Br)c(Br)c21.[Na+].[Na+] [SULFOBROMOPHTHALEIN SODIUM] | 94.1% | 69.3% | 74.9%
